Where two headings read alike, the source gives them in different places.
What was measured:
[1] = tested on: cisplatin resistant CH1 cell line (CH1cis^R); conditions: 96 h exposure, value reported in WO97/27202; cited from earlier work
[2] = tested on: cell line SKOV3; conditions: reported in WO 97/27202; cited from earlier work
[3] = tested on: poly[d(A-T)2]; conditions: second binding mode, circular dichroism; cited from earlier work
[4] = tested on: CH1 cell line; assay: in vitro cytotoxicity, sulforhodamine B growth inhibition assay; assay type: cell-based, human; conditions: 96 h exposure
Description: (§1) The IC50 values of the bis-2,2':6',2"-terpyridine Pt(II) complexes (1, Z=trans-CH=CH-, Y=H), (1, Z=trans-CH=CH-, Y=Cl) and (1, Z=trans-CH=CH-, Y=4-Br.C6H4), were reported in PCT/GB97/00218 (WO97/27202) and referred to as A14, I14 and Q14 respectively. They were evaluated for in vitro cytotoxicity against five human ovarian carcinoma cell lines which included two selected for resistance to cisplatin (Ch1cis^R and A2780cis^R) and one for resistance to doxorubicin (Ch1dox^R). The compounds were exposed to cells for 96 h and growth inhibition assessed using the sulforhodamine B protein staining assay.

[5] = tested on: cisplatin resistant CH1 cell line (CH1cis^R); assay: as above; assay type: cell-based, human; conditions: 96 h exposure
Description: as §1

[6] = tested on: doxirubicin resistant CH1 cell line; assay type: cell-based, human; conditions: doxirubicin resistant CH1 cell line versus CH1
Description: as §1

[7] = maximum tolerated dose, single intraperitoneal injection; assay type: in vivo; conditions: for loss of body weight: 25, 50 and 100 mg/kg i.p., body weight 2 weeks post-dosing; for deaths: single intraperitoneal injection at 25, 50 and 100 mg/kg; for signs of induced toxicity: single intraperitoneal injection
Description: The maximum tolerated dose was determined for A15(4NO3) and I15(4NO3).
Drugs were administered as a single intraperitoneal injection at 25, 50 and 100 mg/kg. Animals were observed daily for signs of induced toxicity and body weight determined 2 weeks post-dosing.

[8] = tested on: A2780 cisplatin resistant cell line (A2780cis^R); assay: in vitro cytotoxicity, sulforhodamine B growth inhibition assay; assay type: cell-based, human
Description: as §1

[9] = tested on: cell line A2780; assay: as above; assay type: cell-based, human; conditions: 96 h exposure
Description: as §1

[10] = tested on: cell line SKOV3; assay: as above; assay type: cell-based, human
Description: as §1

[11] = tested on: calf-thymus (ct)-DNA; conditions: literature values; cited from earlier work
[12] = tested on: DNA; conditions: intercalation into DNA, literature value [4]; cited from earlier work

4,4'-vinylenedipyridine bis[2,2':6',2"-terpyridine platinum (II)] [A14 (4BF4)]
IC50 [1]: < 1 µM
antitumour activity compared with cisplatin [2]: more effective than cisplatin

Cc1cc[n+]([Pt-2]23[n+]4ccccc4-c4cccc([n+]42)-c2cccc[n+]23)cc1.F[B-](F)(F)F.F[B-](F)(F)F [4-Picoline-2,2':6',2"-terpyridine-platinum(II) bis-tetrafluoroborate]
equilibrium binding constant [3]: about 1 x10^6 M^-1

C(C#Cc1cc[n+]([Pt-2]23[n+]4ccccc4-c4cccc([n+]42)-c2cccc[n+]23)cc1)#Cc1cc[n+]([Pt-2]23[n+]4ccccc4-c4cccc([n+]42)-c2cccc[n+]23)cc1.O=[N+]([O-])[O-].O=[N+]([O-])[O-].O=[N+]([O-])[O-].O=[N+]([O-])[O-] [A15, 1,4-Bis(4-pyridyl)butadiyne bis[(2,2':6',2"-terpyridine)platinum(II)] tetranitrate]
IC50 [4]: < 1 µM
IC50 [5]: < 1 µM
resistance factors (RF) [6]: 0.6
loss of body weight [7]: no loss of body weight
deaths [7]: no deaths
signs of induced toxicity ([7]; 100 mg/kg): no sign of toxicity or body weight loss

Clc1cc2[n+]3c(c1)-c1cccc[n+]1[Pt-2]3([n+]1ccc(C#CC#Cc3cc[n+]([Pt-2]45[n+]6ccccc6-c6cc(Cl)cc([n+]64)-c4cccc[n+]45)cc3)cc1)[n+]1ccccc1-2.O=[N+]([O-])[O-].O=[N+]([O-])[O-].O=[N+]([O-])[O-].O=[N+]([O-])[O-] [I15, 1,4-Bis(4-pyridyl)butadiyne bis[(4'-chloro-2,2':6'2"-terpyridine)platinum(II)] tetranitrate]
times more effective than cisplatin ([8]; A2780cis^R cell line): 13 times
resistance factors (RF) ([8]; A2780cis^R versus A2780): 1.1
IC50 [9]: < 1 µM
antitumour activity compared with cisplatin [10]: more effective than cisplatin
loss of body weight [7]: no loss of body weight
deaths [7]: no deaths
signs of induced toxicity ([7]; 50 mg/kg): not at 50 mg/kg
signs of induced toxicity ([7]; 100 mg/kg): some indication of toxicity (mild ataxia/twitching)

Clc1cc2[n+]3c(c1)-c1cccc[n+]1[Pt-2]3([n+]1ccc(-c3cc[n+]([Pt-2]45[n+]6ccccc6-c6cc(Cl)cc([n+]64)-c4cccc[n+]45)cc3)cc1)[n+]1ccccc1-2.O=[N+]([O-])[O-].O=[N+]([O-])[O-].O=[N+]([O-])[O-].O=[N+]([O-])[O-] [I18, 4,4'-Dipyridine bis[(4'-chloro-2,2':6',2"-terpyridine)platinum(II)] tetranitrate]
IC50 [4]: < 1 µM
antitumour activity compared with cisplatin [10]: more effective than cisplatin
IC50 [5]: < 1 µM

O=[N+]([O-])[O-].O=[N+]([O-])[O-].O=[N+]([O-])[O-].O=[N+]([O-])[O-].O=[N+]([O-])[O-].O=[N+]([O-])[O-].[NH3+][Pt-2]([NH3+])([n+]1ccc(-c2cc[n+]([Pt-2]34[n+]5ccccc5-c5cc(Cl)cc([n+]53)-c3cccc[n+]34)cc2)cc1)[n+]1ccc(-c2cc[n+]([Pt-2]34[n+]5ccccc5-c5cc(Cl)cc([n+]53)-c3cccc[n+]34)cc2)cc1 [I20, trans-Diamminebis(4,4'-dipyridyl)platinum(II) bis[(4'-chloro-2,2':6',2"-terpyridine)platinum(II)] hexanitrate]
IC50 [4]: < 1 µM
IC50 [5]: < 1 µM
resistance factors (RF) [6]: 0.8

[Cl-].[Cl-].[Pt+2].c1ccc(-c2cccc(-c3ccccn3)n2)nc1 [chloroplatinum complex]
binding association constants with ct-DNA [11]: essentially the same binding constant

F[B-](F)(F)F.[OH][Pt-2]12[n+]3ccccc3-c3cccc([n+]31)-c1cccc[n+]12 [hydroxy-platinum complex]
binding constant [12]: approximately 7 x 10^4 M^-1

hydroxyethanethiolate-2,2':6',2"-terpyridine-platinum(II) [hydroxy-ethanethiolate complex]
binding association constants with ct-DNA [11]: 83000 M⁻¹

— patent EP1144423B1, “BIS-TERPYRIDINE-PLATINUM(II) COMPLEXES” (ISIS INNOVATION LIMITED, priority 1999, dated 2000)
